This note sets out measurements from ChEMBL document CHEMBL6078666, “Discovery of Novel Coumarin Pleuromutilin Derivatives as Potent Anti-MRSA Agents” (J Med Chem, 2024).

Common to all, as to format: functional
For test [1], the system named is Staphylococcus aureus. Nature of the test: Ratio of MBC to MIC against methicillin-resistant Staphylococcus aureus clinical isolate 202405157.
Test [2] concerns Enterococcus faecium. Nature of the test: Antibacterial activity against vancomycin-resistant Enterococcus faecium ATCC 51559 assessed as bacterial growth inhibition measured after 20 hrs by broth dilution method.
For test [3], the system named is Staphylococcus epidermidis. The test is described as follows: Antibacterial activity against methicillin-resistant Staphylococcus epidermidis clinical isolate 202409139 assessed as bacterial growth inhibition measured after 20 hrs by broth dilution method.
Test [4] has as its system Staphylococcus aureus. The test is described as follows: Ratio of MBC to MIC against methicillin-resistant Staphylococcus aureus clinical isolate 202311772.
Test [5] concerns Enterococcus faecium. Nature of the test: Ratio of MBC to MIC against vancomycin-resistant Enterococcus faecium ATCC 51559.
Test [6] concerns Staphylococcus epidermidis. The test is described as follows: Ratio of MBC to MIC against Staphylococcus epidermidis ATCC 51625.
For test [7], the system named is Staphylococcus epidermidis. The test is described as follows: Ratio of MBC to MIC against methicillin-resistant Staphylococcus epidermidis clinical isolate 202409454.
The subject of test [8] is Staphylococcus aureus. The test is described as follows: Antibacterial activity against methicillin-resistant Staphylococcus aureus clinical isolate 202311772 assessed as bacterial growth inhibition measured after 20 hrs by broth dilution method.
The test system of test [9] is Staphylococcus aureus. Nature of the test: Antibacterial activity against methicillin-resistant Staphylococcus aureus ATCC 33591 assessed as bacterial growth inhibition measured after 20 hrs by broth dilution method.
For test [10], the system named is Staphylococcus aureus. Nature of the test: Ratio of MBC to MIC against methicillin-resistant Staphylococcus aureus ATCC 33591.
For test [11], the system named is Staphylococcus epidermidis. Nature of the test: Antibacterial activity against Staphylococcus epidermidis ATCC 51625 assessed as bacterial growth inhibition measured after 20 hrs by broth dilution method.
Test [12] relates to Staphylococcus aureus. Nature of the test: Antibacterial activity against methicillin-resistant Staphylococcus aureus clinical isolate 202405157 assessed as bacterial growth inhibition measured after 20 hrs by broth dilution method.
For test [13], the system named is Streptococcus pneumoniae. The test is described as follows: Antibacterial activity against penicillin-resistant Streptococcus pneumoniae ATCC 51916 assessed as bacterial growth inhibition measured after 20 hrs by broth dilution method.
The subject of test [14] is Staphylococcus aureus. The test is described as follows: Antibacterial activity against methicillin-resistant Staphylococcus aureus ATCC 43300 assessed as bacterial growth inhibition measured after 20 hrs by broth dilution method.
Test [15] has as its system Enterococcus faecium. Nature of the test: Ratio of MBC to MIC against vancomycin-resistant Enterococcus faecium ATCC 700221.
Test [16] has as its system Enterococcus faecium. Nature of the test: Antibacterial activity against vancomycin-resistant Enterococcus faecium ATCC 700221 assessed as bacterial growth inhibition measured after 20 hrs by broth dilution method.
The subject of test [17] is Streptococcus pneumoniae. Nature of the test: Ratio of MBC to MIC against penicillin-intermediate Streptococcus pneumoniae ATCC 49619.
Test [18] has as its system Staphylococcus epidermidis. Nature of the test: Antibacterial activity against methicillin-resistant Staphylococcus epidermidis clinical isolate 202409454 assessed as bacterial growth inhibition measured after 20 hrs by broth dilution method.
The subject of test [19] is Streptococcus pneumoniae. Nature of the test: Antibacterial activity against penicillin-intermediate Streptococcus pneumoniae ATCC 49619 assessed as bacterial growth inhibition measured after 20 hrs by broth dilution method.
Test [20] concerns Staphylococcus aureus. Nature of the test: Antibacterial activity against methicillin-resistant Staphylococcus aureus clinical isolate 202313160 assessed as bacterial growth inhibition measured after 20 hrs by broth dilution method.
For test [21], the system named is Staphylococcus aureus. The test is described as follows: Ratio of MBC to MIC against Staphylococcus aureus ATCC 43300.
Test [22] deals with Enterococcus faecium. The test is described as follows: Antibacterial activity against vancomycin-resistant Enterococcus faecium clinical isolate 202308456 assessed as bacterial growth inhibition measured after 20 hrs by broth dilution method.
In test [23] the test system is Staphylococcus epidermidis. The test is described as follows: Ratio of MBC to MIC against methicillin-resistant Staphylococcus epidermidis clinical isolate 202409139.
Test [24] deals with Enterococcus faecium. The test is described as follows: Ratio of MBC to MIC against vancomycin-resistant Enterococcus faecium clinical isolate 202308456.
In test [25] the test system is Streptococcus pneumoniae. Nature of the test: Ratio of MBC to MIC against penicillin-resistant Streptococcus pneumoniae ATCC 51916.
The subject of test [26] is Staphylococcus aureus. Nature of the test: Ratio of MBC to MIC against methicillin-resistant Staphylococcus aureus clinical isolate 202313160.

In brackets after ≈: the same amount, converted by molar mass. Some results are limits rather than exact numbers.

As for `C=C[C@]1(C)C[C@@H](OC(=O)CSc2cc(=O)oc3ccc(F)cc23)[C@]2(C)[C@H](C)CC[C@]3(CCC(=O)[C@H]32)[C@@H](C)[C@@H]1O`, the Ratio with Staphylococcus aureus [1] is recorded as more than 4; in the test with Staphylococcus aureus [4] it was more than 4; in the test with Enterococcus faecium [5] it was 2; in test [6], 4; in [7], more than 4; in the test on Staphylococcus aureus [10] it was more than 4. Besides, the Ratio with Enterococcus faecium [15] is 4; in the test with Streptococcus pneumoniae [17], more than 4; with Staphylococcus aureus [21] it was 4; in test [23] it was 2; in the test on Enterococcus faecium [24], more than 4. Further, the MIC came to 0.063 µg/mL (≈ 0.113 µM) in the test on Enterococcus faecium [2]; 0.063 µg/mL (≈ 0.113 µM) in test [3]; 0.031 µg/mL (≈ 0.0557 µM) in the test on Staphylococcus aureus [8]; 0.031 µg/mL (≈ 0.0557 µM) in the test with Staphylococcus aureus [9]; 0.031 µg/mL (≈ 0.0557 µM) in test [11]; 0.063 µg/mL (≈ 0.113 µM) in the test with Staphylococcus aureus [12]. For the same compound, the MIC in the test with Streptococcus pneumoniae [13] stood at 0.125 µg/mL (≈ 0.225 µM); in the test with Staphylococcus aureus [14] it was 0.063 µg/mL (≈ 0.113 µM); in the test with Enterococcus faecium [16], 0.031 µg/mL (≈ 0.0557 µM); in test [18], 0.125 µg/mL (≈ 0.225 µM); in the test on Streptococcus pneumoniae [19], 0.063 µg/mL (≈ 0.113 µM); with Staphylococcus aureus [20] it was 0.063 µg/mL (≈ 0.113 µM). Further, in the test on Enterococcus faecium [22], the MIC was 0.031 µg/mL (≈ 0.0557 µM).
Consider `C=C[C@]1(C)C[C@@H](OC(=O)CO)[C@]2(C)[C@H](C)CC[C@]3(CCC(=O)[C@H]32)[C@@H](C)[C@@H]1O` [PLEUROMULIN], for which the MIC in the test with Enterococcus faecium [2] came out at 2 µg/mL (≈ 5.28 µM); in test [3] it was 0.25 µg/mL (≈ 0.66 µM); with Staphylococcus aureus [8], 0.25 µg/mL (≈ 0.66 µM); with Staphylococcus aureus [9], 0.5 µg/mL (≈ 1.32 µM); in test [11] it was 1 µg/mL (≈ 2.64 µM); in the test with Staphylococcus aureus [12], 0.5 µg/mL (≈ 1.32 µM). In addition, the MIC with Streptococcus pneumoniae [13] came to 4 µg/mL (≈ 10.6 µM); in the test on Staphylococcus aureus [14], 1 µg/mL (≈ 2.64 µM); in the test on Enterococcus faecium [16], 0.5 µg/mL (≈ 1.32 µM); in [18], 0.25 µg/mL (≈ 0.66 µM); with Streptococcus pneumoniae [19] it was 2 µg/mL (≈ 5.28 µM); with Staphylococcus aureus [20], 0.5 µg/mL (≈ 1.32 µM). Besides, the MIC in the test on Enterococcus faecium [22] is 0.5 µg/mL (≈ 1.32 µM). Further, the Ratio in the test with Staphylococcus aureus [4] is more than 4; in the test with Enterococcus faecium [5], 2; in test [6], more than 4; with Staphylococcus aureus [10] it was 4; with Enterococcus faecium [15], more than 4; in the test on Streptococcus pneumoniae [17], 2. Moreover, the Ratio is recorded as 4 in the test on Streptococcus pneumoniae [25]; 2 in the test with Staphylococcus aureus [21]; 4 in test [23]; 2 in the test with Enterococcus faecium [24]; more than 4 in the test on Staphylococcus aureus [26].
On to `C=C[C@]1(C)C[C@@H](OC(=O)CSc2cc(=O)oc3cc(Br)ccc23)[C@]2(C)[C@H](C)CC[C@]3(CCC(=O)[C@H]32)[C@@H](C)[C@@H]1O`, for which the Ratio is 2 in the test on Staphylococcus aureus [1]; 1 in the test on Staphylococcus aureus [4]; 1 in the test with Enterococcus faecium [5]; 4 in test [6]; 2 in the test with Enterococcus faecium [15]; more than 4 with Streptococcus pneumoniae [17]. For the same compound, the Ratio is listed as more than 4 in the test with Staphylococcus aureus [21], more than 4 in [23], 2 in the test on Enterococcus faecium [24] and 4 in the test with Staphylococcus aureus [26]. The minimal inhibitory concentration (MIC) with Enterococcus faecium [2] was determined as 0.063 µg/mL (≈ 0.102 µM); in [3] it was 0.125 µg/mL (≈ 0.202 µM); with Staphylococcus aureus [8], 0.031 µg/mL (≈ 0.0502 µM); in the test on Staphylococcus aureus [9], 0.031 µg/mL (≈ 0.0502 µM); in test [11] it was 0.031 µg/mL (≈ 0.0502 µM); with Staphylococcus aureus [12], 0.063 µg/mL (≈ 0.102 µM). Besides, the MIC with Streptococcus pneumoniae [13] came to 0.125 µg/mL (≈ 0.202 µM); in the test on Staphylococcus aureus [14] it was 0.063 µg/mL (≈ 0.102 µM); with Enterococcus faecium [16] it was 0.031 µg/mL (≈ 0.0502 µM); in [18] it was 0.125 µg/mL (≈ 0.202 µM); with Streptococcus pneumoniae [19], 0.063 µg/mL (≈ 0.102 µM); in the test with Staphylococcus aureus [20] it was 0.125 µg/mL (≈ 0.202 µM). The MIC with Enterococcus faecium [22] is 0.063 µg/mL (≈ 0.102 µM).
